Laboratory results reported in US20120083522A1, “MODULATION OF INFLAMMATORY RESPONSES BY FACTOR XI” (Isis Pharmaceuitcals, inc., priority 2009, published 2012).
In the oligonucleotide strings, read from the 5' end, every base follows the letter of its sugar. An asterisk marks phosphorothioate; unmarked linkages are phosphodiester. Other units and linkages are bracketed, terminal groups are in braces. A string of capitals states the bases alone. e = 2'-O-(2-methoxyethyl) (MOE); [5mC] = 5-methylcytosine; d = 2'-deoxy (DNA)

What was measured:
Format in all cases: cell-based
[1] = system: human Factor XI mRNA; experiment: Antisense inhibition in HepG2 cells by microwalk gapmers, 75 nM, lipofectin (Example 3); details: HepG2 cells, 75 nM
Protocol: These gapmers were designed by creating gapmers shifted slightly upstream and downstream (i.e. “microwalk”) of the original gapmers from Table 3. Gapmers were also created with various motifs, e.g. 5-10-5 MOE, 3-14-3 MOE, and 2-13-5 MOE. These gapmers were tested in vitro. Cultured HepG2 cells at a density of 10,000 cells per well were transfected using lipofectin reagent with 75 nM antisense oligonucleotide. After a treatment period of approximately 24 hours, RNA was isolated from the cells and Factor XI mRNA levels were measured by quantitative real-time PCR. Factor XI mRNA levels were adjusted according to total RNA content, as measured by RIBOGREEN®. Results are presented as percent inhibition of Factor XI, relative to untreated control cells.
The chimeric antisense oligonucleotides in Table 4 were designed as 5-10-5 MOE, 3-14-3 MOE, and 2-13-5 MOE gapmers. The first listed gapmers in Table 4 are the original gapmers (see Table 3) from which the remaining gapmers were designed via microwalk and are designated by an asterisk. The 5-10-5 gapmers are 20 nucleotides in length, wherein the central gap segment is comprised of 10 2′-deoxynucleotides and is flanked on both sides (in the 5′ and 3′ directions) by wings comprising 5 nucleotides each. The 3-14-3 gapmers are 20 nucleotides in length, wherein the central gap segment is comprised of 14 2′-deoxynucleotides and is flanked on both sides (in the 5′ and 3′ directions) by wings comprising 3 nucleotides each. The 2-13-5 gapmers are 20 nucleotides in length, wherein the central gap segment is comprised of 13 2′-deoxynucleotides. The central gap is flanked on the 5′ end with a wing comprising 2 nucleotides and on the 3′ end with a wing comprising 5 nucleotides. For each of the motifs (5-10-5, 3-14-3, and 2-13-5), each nucleotide in the 5′ wing segment and each nucleotide in the 3′ wing segment has a 2′-MOE modification. The internucleoside linkages throughout each gapmer are phosphorothioate (P═S) linkages. All cytidine residues throughout each gapmer are 5-methylcytidines. “Target start site” indicates the 5′-most nucleotide to which the gapmer is targeted. “Target stop site” indicates the 3′-most nucleotide to which the gapmer is targeted. Each gapmer listed in Table 4 is targeted to SEQ ID NO: 1 (GENBANK Accession No. NM_000128.3).

[2] = system: human Factor XI mRNA; experiment: Dose-dependent inhibition in HepG2 cells, electroporation (Example 4); details: 16 hours
Protocol: (§1) The gapmers were also transfected via electroporation and their dose dependent inhibition of human Factor XI mRNA was measured. Cells were plated at a density of 20,000 cells per well and transfected via electroporation with 0.7 μM, 2.2 μM, 6.7 μM, and 20 μM concentrations of antisense oligonucleotide, as specified in Table 10. After a treatment period of approximately 16 hours, RNA was isolated from the cells and Factor XI mRNA levels were measured by quantitative real-time PCR. Human Factor XI primer probe set RTS 2966 was used to measure mRNA levels. Factor XI mRNA levels were adjusted according to total RNA content, as measured by RIBOGREEN®. Results are presented as percent inhibition of Factor XI, relative to untreated control cells.

[3] = system: human Factor XI mRNA; experiment: Dose-dependent inhibition in HepG2 cells, lipofectin (Example 4); details: 16 hours
Protocol: as §1, with “Cells” for “The gapmers were also transfected via electroporation and their dose dependent inhibition of human Factor XI mRNA was measured. Cells”, “10,000” for “20,000”, “using lipofectin reagent” for “via electroporation”, “9.375 nM, 18.75 nM, 37.5 nM” for “0.7 μM, 2.2 μM, 6.7 μM,”, “75 nM” for “20 μM”, “9.” for “10.”

[4] = oligonucleotides targeted to nucleobases 1062 to 1091 of SEQ ID NO: 1
[5] = oligonucleotides targeted to nucleobases 738 to 762 of SEQ ID NO: 1
[6] = oligonucleotides targeted to nucleobases 1018 to 1042 of SEQ ID NO: 1

Substance	percent inhibition of Factor XI mRNA, relative to untreated control cells ([2]; 0.7 μM) [%]	percent inhibition of Factor XI mRNA, relative to untreated control cells ([2]; 2.2 μM) [%]	percent inhibition of Factor XI mRNA, relative to untreated control cells ([2]; 6.7 μM) [%]	percent inhibition of Factor XI mRNA, relative to untreated control cells ([2]; 20 μM) [%]	percent inhibition of Factor XI mRNA, relative to untreated control cells ([3]; 9.375 nM) [%]	percent inhibition of Factor XI mRNA, relative to untreated control cells ([3]; 18.75 nM) [%]	percent inhibition of Factor XI mRNA, relative to untreated control cells ([3]; 37.5 nM) [%]	percent inhibition of Factor XI mRNA, relative to untreated control cells ([3]; 75 nM) [%]	also measured
412215 (antisense eA*eT*eT*e[5mC]*eT*dT*dT*dG*dG*dG*d[5mC]*d[5mC]*dA*dT*dT*e[5mC]*e[5mC]*eT*eG*eG) [compound 412215]									% inhibition of human Factor XI mRNA levels [1, 4]: 82%
416827 (antisense eT*eA*eT*eG*e[5mC]*d[5mC]*d[5mC]*dT*dT*d[5mC]*dA*dT*dG*dT*d[5mC]*eT*eA*eG*eG*eT) [compound 416827]	37	68	87	92	31	42	62	77	
416830 (antisense eT*e[5mC]*e[5mC]*eG*eT*dG*d[5mC]*dA*dT*d[5mC]*dT*dT*dT*d[5mC]*dT*eT*eG*eG*e[5mC]*eA) [compound 416830]									% inhibition of human Factor XI mRNA levels [1, 5]: 81%
416831 (antisense eA*eT*e[5mC]*e[5mC]*eG*dT*dG*d[5mC]*dA*dT*d[5mC]*dT*dT*dT*d[5mC]*eT*eT*eG*eG*e[5mC]) [compound 416831]									% inhibition of human Factor XI mRNA levels [1, 5]: 91%
416832 (antisense e[5mC]*eA*eT*e[5mC]*e[5mC]*dG*dT*dG*d[5mC]*dA*dT*d[5mC]*dT*dT*dT*e[5mC]*eT*eT*eG*eG) [compound 416832]									% inhibition of human Factor XI mRNA levels [1, 5]: 79%
416833 (antisense eT*e[5mC]*eA*eT*e[5mC]*d[5mC]*dG*dT*dG*d[5mC]*dA*dT*d[5mC]*dT*dT*eT*e[5mC]*eT*eT*eG) [compound 416833]									% inhibition of human Factor XI mRNA levels [1, 5]: 65%
416834 (antisense eG*eT*e[5mC]*eA*eT*d[5mC]*d[5mC]*dG*dT*dG*d[5mC]*dA*dT*d[5mC]*dT*eT*eT*e[5mC]*eT*eT) [compound 416834]									% inhibition of human Factor XI mRNA levels [1, 5]: 58%
416835 (antisense eA*e[5mC]*e[5mC]*eG*eG*dG*dA*dT*dG*dA*dT*dG*dA*dG*dT*eG*e[5mC]*eA*eG*eA) [compound 416835]									% inhibition of human Factor XI mRNA levels [1, 6]: 83%
416836 (antisense eA*eA*e[5mC]*e[5mC]*eG*dG*dG*dA*dT*dG*dA*dT*dG*dA*dG*eT*eG*e[5mC]*eA*eG) [compound 416836]									% inhibition of human Factor XI mRNA levels [1, 6]: 89%
416837 (antisense e[5mC]*eA*eA*e[5mC]*e[5mC]*dG*dG*dG*dA*dT*dG*dA*dT*dG*dA*eG*eT*eG*e[5mC]*eA) [compound 416837]									% inhibition of human Factor XI mRNA levels [1, 6]: 90%
416839 (antisense eG*eA*eT*eT*e[5mC]*dT*dT*dT*dG*dG*dG*d[5mC]*d[5mC]*dA*dT*eT*e[5mC]*e[5mC]*eT*eG) [compound 416839]									% inhibition of human Factor XI mRNA levels [1, 4]: 89%
416840 (antisense eA*eG*eA*eT*eT*d[5mC]*dT*dT*dT*dG*dG*dG*d[5mC]*d[5mC]*dA*eT*eT*e[5mC]*e[5mC]*eT) [compound 416840]									% inhibition of human Factor XI mRNA levels [1, 4]: 85%
416841 (antisense eG*eA*eG*eA*eT*dT*d[5mC]*dT*dT*dT*dG*dG*dG*d[5mC]*d[5mC]*eA*eT*eT*e[5mC]*e[5mC]) [compound 416841]									% inhibition of human Factor XI mRNA levels [1, 4]: 87%
416843 (antisense eT*eT*eT*eG*eA*dG*dA*dT*dT*d[5mC]*dT*dT*dT*dG*dG*eG*e[5mC]*e[5mC]*eA*eT) [compound 416843]									% inhibition of human Factor XI mRNA levels [1, 4]: 89%
416895 (antisense eT*eA*eT*dG*d[5mC]*d[5mC]*d[5mC]*dT*dT*d[5mC]*dA*dT*dG*dT*d[5mC]*dT*dA*eG*eG*eT) [compound 416895]	0	62	70	91	39	57	66	71	
416896 (antisense eT*eT*eA*dT*dG*d[5mC]*d[5mC]*d[5mC]*dT*dT*d[5mC]*dA*dT*dG*dT*d[5mC]*dT*eA*eG*eG) [compound 416896]	12	35	81	89	22	39	57	81	
416945 (antisense eA*eA*dT*dG*dT*d[5mC]*dT*dT*dT*dG*dT*dT*dG*d[5mC]*dA*eA*eG*e[5mC]*eG*e[5mC]) [compound 416945]	48	70	81	88	34	45	62	65	
416969 (antisense eG*e[5mC]*d[5mC]*d[5mC]*dT*dT*d[5mC]*dA*dT*dG*dT*d[5mC]*dT*dA*dG*eG*eT*e[5mC]*e[5mC]*eA) [compound 416969]	25	34	86	92	17	39	61	76	
416972 (antisense eT*eA*dT*dG*d[5mC]*d[5mC]*d[5mC]*dT*dT*d[5mC]*dA*dT*dG*dT*d[5mC]*eT*eA*eG*eG*eT) [compound 416972]	25	30	48	88	32	40	60	69	
416973 (antisense eT*eT*dA*dT*dG*d[5mC]*d[5mC]*d[5mC]*dT*dT*d[5mC]*dA*dT*dG*dT*e[5mC]*eT*eA*eG*eG) [compound 416973]	20	48	86	93	60	75	85	87	
